Reference: ChEMBL document CHEMBL4177579, “Eudesmane sesquiterpenes from Chinese liverwort are substrates of Cdrs and display antifungal activity by targeting Erg6 and Erg11 of Candida albicans” (Bioorg Med Chem, 2017)
Converted amounts (≈) assume the structure as drawn.

Key:
Candida albicans [1] = assay: Antifungal activity against CDR2 deficient Candida albicans DSY653 incubated for 48 hrs by alamar blue assay; type: functional; details: DSY653, 48 h
Candida albicans [2] = assay: Antifungal activity against MDR1 deficient Candida albicans DSY465 incubated for 48 hrs by alamar blue assay; type: functional; details: DSY465, 48 h
Candida albicans [3] = assay: Antifungal activity against Candida albicans SC5314 incubated for 48 hrs by alamar blue assay; type: functional; details: SC5314, 48 h
Candida albicans [4] = assay: Antifungal activity against CDR1 deficient Candida albicans DSY448 incubated for 48 hrs by alamar blue assay; type: functional; details: DSY448, 48 h
Candida albicans [5] = assay: Antifungal activity against CDR1 and CDR2 deficient Candida albicans DSY654 incubated for 48 hrs by alamar blue assay; type: functional; details: DSY654, 48 h
Candida albicans [6] = assay: Inhibition of ERG6/ERG11 in CDR1 and CDR2 deficient Candida albicans DSY654 assessed as feedback mechanism based up-regulation of ERG11 mRNA expression at 16 ug/ml incubated for 10 hrs by qPCR method relative to untreated control
Candida albicans [7] = assay: Inhibition of ERG6/ERG11 in CDR1 and CDR2 deficient Candida albicans DSY654 assessed as induction of alteration in sterol composition by measuring fecosterol level at 16 ug/ml incubated for 10 hrs by GC-MS method (reference value: 8.36 +/- 0.3%); design: scale not given: the % may be the effect or the level left
Candida albicans [8] = assay: Inhibition of the yeast-to-hyphal transition in CDR1 and CDR2 deficient Candida albicans DSY654 incubated for 5 days grown in solid SD medium by microphotography; type: functional, organism-based
Candida albicans [9] = assay: Drug accumulation in Candida albicans SC5314 at 16 ug/ml incubated for 10 hrs in presence of 16 ug/ml CDR inhibitor RD by HPLC method relative to untreated control; type: ADME, organism-based; details: in vivo
Candida albicans [10] = assay: Inhibition of ERG6/ERG11 in CDR1 and CDR2 deficient Candida albicans DSY654 assessed as induction of alteration in sterol composition by measuring ergosterol level at 16 ug/ml incubated for 10 hrs by GC-MS method (reference value: 55.60 +/- 0.29%); design: scale not given: the % may be the effect or the level left
Candida albicans [11] = assay: Inhibition of ERG6/ERG11 in CDR1 and CDR2 deficient Candida albicans DSY654 assessed as induction of alteration in sterol composition by measuring zymosterol level at 16 ug/ml incubated for 10 hrs by GC-MS method (reference value: 2.78 +/- 0.53%); design: scale not given: the % may be the effect or the level left
Candida albicans [12] = assay: Drug accumulation in CDR1 and CDR2 deficient Candida albicans DSY654 at 16 ug/ml incubated for 10 hrs by HPLC method relative to wild type Candida albicans SC5314; type: ADME, organism-based; details: in vivo
Candida albicans [13] = assay: Inhibition of ERG6/ERG11 in CDR1 and CDR2 deficient Candida albicans DSY654 assessed as feedback mechanism based up-regulation of ERG6 mRNA expression at 16 ug/ml incubated for 10 hrs by qPCR method relative to untreated control
Candida albicans [14] = assay: Inhibition of the yeast-to-hyphal transition in CDR1 and CDR2 deficient Candida albicans DSY654 incubated for 5 days grown in liquid RPMI 1640 medium by microphotography; type: functional, organism-based
Candida albicans [15] = assay: Inhibition of ERG6/ERG11 in CDR1 and CDR2 deficient Candida albicans DSY654 assessed as induction of alteration in sterol composition by measuring lanosterol level at 16 ug/ml incubated for 10 hrs by GC-MS method (reference value: 1.63 +/- 0.28%); design: scale not given: the % may be the effect or the level left

SMILES | MIC80 (Candida albicans [1]) [µg/mL] | MIC80 (Candida albicans [2]) [µg/mL] | MIC80 (Candida albicans [3]) [µg/mL] | MIC80 (Candida albicans [4]) [µg/mL] | MIC80 (Candida albicans [5]) [µg/mL] | fold change (FC) (Candida albicans [6]) | Activity (Candida albicans [7]) [%] | fold change (FC) (Candida albicans [9]) | Activity (Candida albicans [10]) [%] | Activity (Candida albicans [11]) [%] | fold change (FC) (Candida albicans [12]) | fold change (FC) (Candida albicans [13]) | Activity (Candida albicans [15]) [%] | inhibition (Candida albicans [8]) | inhibition (Candida albicans [14])
C=C1CCC[C@@]2(C)C[C@@H]3OC(=O)[C@]4(CO4)[C@@H]3C[C@H]12 | > 128 | > 128 | > 128 | > 128 | > 128 | – | – | – | – | – | – | – | – | – | –
C=C1CCC[C@@]2(C)C[C@H](O)[C@H](C(=C)C)C[C@H]12 | > 128 | > 128 | > 128 | > 128 | 64 (≈ 290 µM) | – | – | – | – | – | – | – | – | – | –
C=C1CCC[C@@]2(C)C[C@@H]3OC(=O)[C@@H](C)[C@@H]3C[C@H]12 | > 128 | > 128 | > 128 | > 128 | > 128 | – | – | – | – | – | – | – | – | – | –
C=C1CCC[C@@]2(C)C[C@@H]3OC(=O)C(=C)[C@@H]3C[C@H]12 | > 128 | > 128 | > 128 | > 128 | 16 (≈ 68.9 µM) | 2.7 | 6.16 | 10.4 | 33.7 | 10.8 | 4.95 | 9.3 | 17.2 | Dose-dependent effect | Dose-dependent effect
C=C1CCC[C@@]2(C)C[C@@H]3OC(=O)[C@](CO)(OCC)[C@@H]3C[C@H]12 | > 128 | > 128 | > 128 | > 128 | > 128 | – | – | – | – | – | – | – | – | – | –
C=C1CCC[C@@]2(C)C[C@@]3(O)OC(=O)C(C)=C3C[C@H]12 | > 128 | > 128 | > 128 | > 128 | 64 (≈ 258 µM) | – | – | – | – | – | – | – | – | – | –
C=C(CO)[C@H]1CC[C@]2(C)CCCC(=C)[C@H]2[C@H]1O | > 128 | > 128 | > 128 | > 128 | 64 (≈ 271 µM) | – | – | – | – | – | – | – | – | – | –

Now from value to compound, other results behind:

MIC80 (Candida albicans [1]) [µg/mL] | MIC80 (Candida albicans [2]) [µg/mL] | MIC80 (Candida albicans [3]) [µg/mL] | MIC80 (Candida albicans [4]) [µg/mL] | MIC80 (Candida albicans [5]) [µg/mL] | fold change (FC) (Candida albicans [6]) | Activity (Candida albicans [7]) [%] | fold change (FC) (Candida albicans [9]) | Activity (Candida albicans [10]) [%] | Activity (Candida albicans [11]) [%] | fold change (FC) (Candida albicans [12]) | fold change (FC) (Candida albicans [13]) | Activity (Candida albicans [15]) [%] | SMILES | inhibition (Candida albicans [8]) | inhibition (Candida albicans [14])
> 128 | > 128 | > 128 | > 128 | 32 (≈ 128 µM) | – | – | – | – | – | – | – | – | C=C1CCC[C@@]2(C)C[C@@H]3OC(=O)[C@@](C)(O)[C@@H]3C[C@H]12 | – | –
> 128 | > 128 | > 128 | > 128 | > 128 | – | – | – | – | – | – | – | – | CC1=CC(=O)C[C@@]2(C)CC[C@](O)(C(C)C)C[C@H]12 | – | –
> 128 | > 128 | > 128 | > 128 | > 128 | – | – | – | – | – | – | – | – | CC1(C)C[C@H](O)C[C@@]2(C)OC(=O)C=C12 [LOLIOLIDE] | – | –
> 128 | > 128 | > 128 | > 128 | > 128 | – | – | – | – | – | – | – | – | CC1=CCC[C@@]2(C)C[C@@H]3OC(=O)[C@H](C)[C@@H]3C[C@H]12 | – | –
> 128 | > 128 | > 128 | > 128 | > 128 | – | – | – | – | – | – | – | – | C=C(C)[C@@H]1C[C@@]2(C(C)=O)C[C@@H](O)C[C@@]2(C)C[C@@H]1O | – | –
